In patent publication US20240287138A1, “CYCLIC PEPTIDES FOR INHIBITING TNF RECEPTOR 1 ACTIVITY” (Merck Sharp & Dohme LLC, priority 2023, published 2024):
pIC50: −log10 of the molar value. Numbered stars: 1 amine (or outer) side, 2 acyl side, 3 side chain; on linkers, the order of the positions; unused ones are H or OH. Bridge positions count the residues as written; N and C are the ends. Square brackets hold non-standard residues; d marks the D form. Peptide text beside a SMILES is read from it. * marks the point of attachment. Trp(βS-Me,7-OMe) = COc1cccc2c([C@H](C)[C@H](N)C(=O)O)c[nH]c12; Trp(1-CH2COOH) = N[C@@H](Cc1cn(CC(=O)O)c2ccccc12)C(=O)O; Morpholine(3S-CO,6,6-Me2) = CC1(C)CN[C@H](C(=O)O)CO1; Trp(7-CN) = N#Cc1cccc2c(C[C@H](N)C(=O)O)c[nH]c12; Trp(7-Cl) = N[C@@H](Cc1c[nH]c2c(Cl)cccc12)C(=O)O; Phe(3-CONH2) = NC(=O)c1cccc(C[C@H](N)C(=O)O)c1; Phe(4-CONH2) = NC(=O)c1ccc(C[C@H](N)C(=O)O)cc1; Phe(4-COOH) = N[C@@H](Cc1ccc(C(=O)O)cc1)C(=O)O; X9 = CN(C)[C@@H]1C[C@H](C(=O)[*:2])N([*:1])C1; dPro(4S-NH2) = N[C@@H]1CN[C@@H](C(=O)O)C1; Pip(5R-OH) = O=C(O)[C@@H]1CC[C@@H](O)CN1; X1 = O=C([C@@H]1CC[C@H](N[*:1])C1)[*:2]; Pip(4-aza) = O=C(O)[C@@H]1CNCCN1; 4Pal = N[C@@H](Cc1ccncc1)C(=O)O; NMeE = CN[C@@H](CCC(=O)O)C(=O)O; dHyp = O=C(O)[C@H]1C[C@H](O)CN1; Ahp(2) = CCCCC[C@H](N)C(=O)O; NEtAla = CCN[C@@H](C)C(=O)O; αMeS = C[C@](N)(CO)C(=O)O; Carboxymethyl = O=C(O)C*; Nle = CCCC[C@H](N)C(=O)O; Sar = CNCC(=O)O

What follows are compounds tested against T1, TNFα-induced NF-κB signal transduction pathway (TNFR1 signaling) in THP-1 cells (Homo sapiens, UniProt P19438) (assay: THP-1 Lucia NF-κB reporter cell assay, inhibition of TNFα-induced NF-κB signaling). Conditions: THP-1 NF-κB Lucia reporter cells, 10 ng/mL TNFα, 16-18 h, secreted luciferase; read-out: THP-1 IC50.
T1 sequence (P19438 30-455): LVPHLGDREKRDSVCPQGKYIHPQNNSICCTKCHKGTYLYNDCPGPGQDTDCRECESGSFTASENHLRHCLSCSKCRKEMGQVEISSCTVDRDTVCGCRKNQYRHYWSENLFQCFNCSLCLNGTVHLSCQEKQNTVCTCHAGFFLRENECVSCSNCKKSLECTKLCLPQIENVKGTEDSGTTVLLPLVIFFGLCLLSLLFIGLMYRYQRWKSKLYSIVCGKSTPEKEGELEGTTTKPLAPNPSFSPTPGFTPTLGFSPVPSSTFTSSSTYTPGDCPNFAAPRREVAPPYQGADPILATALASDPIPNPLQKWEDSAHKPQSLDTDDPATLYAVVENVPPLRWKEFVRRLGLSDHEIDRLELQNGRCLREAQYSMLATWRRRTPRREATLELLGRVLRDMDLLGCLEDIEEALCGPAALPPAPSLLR
Assay type: cell-based
Method in brief: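 Read-out: secreted Lucia luciferase luminescence (QUANTI-Luc) from supernatant after 16-18 h, 37 °C, 10 ng/mL rhTNFα. Peptide pretreatment 1 h at 37 °C; 20,000 cells/well, selection antibiotics omitted. IC50 via 4-parameter logistic model against min/max controls.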
CCCC[C@@H]1NC(=O)[C@@H]2CC[C@@H](C2)NC(=O)[C@H]([C@@H](C)c2c[nH]c3c(OC)cccc23)NC(=O)CN(C)C(=O)[C@H](Cc2ccc(O)cc2)NC(=O)[C@H](Cc2ccc(OCC(=O)O)cc2)NC(=O)[C@](C)(CO)NC(=O)[C@H](Cc2c[nH]c3c(Cl)cccc23)NC(=O)[C@H](Cc2ccncc2)NC(=O)[C@H](CC(N)=O)NC(=O)[C@H](CCC(=O)O)N(C)C(=O)[C@H](Cc2c[nH]c3ccccc23)NC(=O)[C@@H]2CNCCN2C(=O)[C@H](Cc2ccncc2)NC1=O [SEQ ID NO. 80] (cyclo([4Pal][Trp(7-Cl)][αMeS]Y(Carboxymethyl)Y[Sar][Trp(βS-Me,7-OMe)][X1][Nle][4Pal][Pip(4-aza)]W[NMeE]N)) showed a pIC50 of 8.92.
With CCCC[C@@H]1NC(=O)[C@@H]2CC[C@@H](C2)NC(=O)[C@H]([C@@H](C)c2c[nH]c3c(OC)cccc23)NC(=O)CN(C)C(=O)[C@H](Cc2ccc(C(=O)O)cc2)NC(=O)[C@H](Cc2ccc(C(N)=O)cc2)NC(=O)[C@](C)(CO)NC(=O)[C@H](Cc2c[nH]c3c(Cl)cccc23)NC(=O)[C@H](Cc2ccncc2)NC(=O)[C@H](CC(N)=O)NC(=O)[C@H]2C[C@H](O)CN2C(=O)[C@H](Cc2c[nH]c3ccccc23)NC(=O)[C@@H]2CNCCN2C(=O)[C@H](Cc2ccncc2)NC1=O [SEQ ID NO. 83] (cyclo([4Pal][Trp(7-Cl)][αMeS][Phe(4-CONH2)][Phe(4-COOH)][Sar][Trp(βS-Me,7-OMe)][X1][Nle][4Pal][Pip(4-aza)]W[dHyp]N)) the pIC50 was 9.22.
CCCCC[C@@H]1NC(=O)[C@@H]2CC[C@@H](C2)NC(=O)[C@H]([C@@H](C)c2c[nH]c3c(OC)cccc23)NC(=O)CN(C)C(=O)[C@H](Cc2cccc(C(N)=O)c2)NC(=O)[C@H](Cc2ccc(C(N)=O)cc2)NC(=O)[C@](C)(CO)NC(=O)[C@H](Cc2c[nH]c3c(C#N)cccc23)NC(=O)[C@H](Cc2ccc(C(=O)O)cc2)NC(=O)[C@H](CC(N)=O)NC(=O)[C@H]2C[C@@H](N(C)C)CN2C(=O)[C@H](Cc2c[nH]c3ccccc23)NC(=O)[C@@H]2CC[C@@H](O)CN2C(=O)[C@H](Cc2ccncc2)NC1=O [SEQ ID NO. 84] (cyclo([4Pal][Pip(5R-OH)]W[X9]N[Phe(4-COOH)][Trp(7-CN)][αMeS][Phe(4-CONH2)][Phe(3-CONH2)][Sar][Trp(βS-Me,7-OMe)][X1][Ahp(2)])) was tested, and the pIC50 was 9.22.
For CCCC[C@@H]1NC(=O)[C@@H]2CC[C@@H](C2)NC(=O)[C@H]([C@@H](C)c2c[nH]c3c(OC)cccc23)NC(=O)CN(C)C(=O)[C@H](Cc2ccc(C(=O)O)cc2)NC(=O)[C@H](Cc2ccc(C(N)=O)cc2)NC(=O)[C@](C)(CO)NC(=O)[C@H](Cc2c[nH]c3c(C#N)cccc23)NC(=O)[C@H](Cc2ccc(C(=O)O)cc2)NC(=O)[C@H](CC(N)=O)NC(=O)[C@H]2C[C@H](N)CN2C(=O)[C@H](Cc2cn(CC(=O)O)c3ccccc23)NC(=O)[C@@H]2CC[C@@H](O)CN2C(=O)[C@H](Cc2ccncc2)NC1=O [SEQ ID NO. 104] (cyclo([4Pal][Pip(5R-OH)][Trp(1-CH2COOH)][dPro(4S-NH2)]N[Phe(4-COOH)][Trp(7-CN)][αMeS][Phe(4-CONH2)][Phe(4-COOH)][Sar][Trp(βS-Me,7-OMe)][X1][Nle])), the pIC50 was 9.00.
CCCC[C@@H]1NC(=O)CSC[C@@H](C(N)=O)NC(=O)[C@H]([C@@H](C)c2c[nH]c3c(OC)cccc23)NC(=O)CN(C)C(=O)[C@H](Cc2ccc(O)cc2)NC(=O)[C@H](Cc2ccc(C(=O)O)cc2)NC(=O)[C@](C)(CO)NC(=O)[C@H](Cc2c[nH]c3c(Cl)cccc23)NC(=O)[C@H](Cc2ccncc2)NC(=O)[C@H](CC(N)=O)NC(=O)[C@H](C)N(CC)C(=O)[C@H](Cc2c[nH]c3ccccc23)NC(=O)[C@@H]2COC(C)(C)CN2C(=O)[C@H](Cc2ccncc2)NC1=O [SEQ ID NO. 183] ({CH2CO}-[Nle][4Pal][Morpholine(3S-CO,6,6-Me2)]W[NEtAla]N[4Pal][Trp(7-Cl)][αMeS][Phe(4-COOH)]Y[Sar][Trp(βS-Me,7-OMe)]C-NH2; thioether N-14) was tested, and the pIC50 was 8.55.
With CCCC[C@@H]1NC(=O)[C@@H]2CC[C@@H](C2)NC(=O)[C@H]([C@@H](C)c2c[nH]c3c(OC)cccc23)NC(=O)CN(C)C(=O)[C@H](Cc2ccc(C(N)=O)cc2)NC(=O)[C@H](Cc2ccc(C(N)=O)cc2)NC(=O)[C@](C)(CO)NC(=O)[C@H](Cc2c[nH]c3c(Cl)cccc23)NC(=O)[C@H](Cc2ccc(C(=O)O)cc2)NC(=O)[C@H](CC(N)=O)NC(=O)[C@H]2C[C@H](O)CN2C(=O)[C@H](Cc2c[nH]c3ccccc23)NC(=O)[C@@H]2CC[C@@H](O)CN2C(=O)[C@H](Cc2ccncc2)NC1=O [SEQ ID NO. 196] (cyclo([4Pal][Pip(5R-OH)]W[dHyp]N[Phe(4-COOH)][Trp(7-Cl)][αMeS][Phe(4-CONH2)][Phe(4-CONH2)][Sar][Trp(βS-Me,7-OMe)][X1][Nle])) the pIC50 was 9.22.
